Experimental data: patent publication US9957271B2, “Substituted bicyclic aza-heterocycles and analogues as sirtuin modulators” (GlaxoSmithKline, LLC, priority 2012, dated 2018)
Like-named read-outs stand apart in the source and are kept apart here.

Target: T1, SIRT1 (Homo sapiens, UniProt Q96EB6)
T1 sequence (Q96EB6 1-747): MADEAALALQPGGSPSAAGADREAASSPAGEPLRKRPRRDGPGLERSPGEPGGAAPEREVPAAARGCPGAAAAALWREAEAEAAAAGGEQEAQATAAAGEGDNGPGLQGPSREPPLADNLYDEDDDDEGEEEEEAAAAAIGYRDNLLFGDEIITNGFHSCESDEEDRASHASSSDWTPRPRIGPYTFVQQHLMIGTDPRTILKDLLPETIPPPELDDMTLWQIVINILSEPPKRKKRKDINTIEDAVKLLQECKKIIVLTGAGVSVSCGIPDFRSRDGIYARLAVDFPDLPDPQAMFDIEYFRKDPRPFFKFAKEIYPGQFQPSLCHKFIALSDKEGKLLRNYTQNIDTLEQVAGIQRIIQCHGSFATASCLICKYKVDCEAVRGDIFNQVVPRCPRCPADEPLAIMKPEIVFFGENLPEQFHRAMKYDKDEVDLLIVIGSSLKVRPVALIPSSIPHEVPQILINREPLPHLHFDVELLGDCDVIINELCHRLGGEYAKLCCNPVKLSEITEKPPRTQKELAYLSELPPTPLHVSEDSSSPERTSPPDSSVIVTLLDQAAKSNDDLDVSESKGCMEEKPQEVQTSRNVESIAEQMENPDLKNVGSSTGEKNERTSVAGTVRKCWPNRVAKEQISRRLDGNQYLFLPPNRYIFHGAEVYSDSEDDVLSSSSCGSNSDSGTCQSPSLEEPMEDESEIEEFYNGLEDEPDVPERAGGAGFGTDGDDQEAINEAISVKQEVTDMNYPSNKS
Assay: TAMRA based mass spectrometry assay of SIRT1 activity
Format: biochemical
Settings: for Emax: read-out: TAMRA % Fold Act
Excerpt: Mass spectrometry based assays were used to identify modulators of SIRT1 activity. The TAMRA based assay utilized a peptide having 20 amino acid residues as follows: Ac-EE-K(biotin)-[…](Ac)NleSTEG-K(5TMR)-EE-NH2 (SEQ ID NO: 1), wherein K(Ac) is an acetylated lysine residue and Nle is a norleucine. The peptide was labeled with the fluorophore 5TMR (excitation 540 nm/emission 580 nm) at the C-terminus. The sequence of the peptide substrate was based on p53 with several modifications. In addition, the methionine residue naturally present in the sequence was replaced with the norleucine because the methionine may be susceptible to oxidation during synthesis and purification. The Trp based assay utilized a peptide having an amino acid residues as follows: Ac-R-H-K-K(Ac)-W-NH2 (SEQ ID NO: 2).
The TAMRA based mass spectrometry assay was conducted as follows: 0.5 μM peptide substrate and 120 μM βNAD^+ was incubated with 10 nM SIRT1 for 25 minutes at 25° C. in a reaction buffer (50 mM Tris-acetate pH 8, 137 mM NaCl, 2.7 mM KCl, 1 mM MgCl2, 5 mM DTT, 0.05% BSA). The SIRT1 protein was obtained by cloning the SirT1 gene into a T7-promoter containing vector, which was then transformed and expressed in BL21(DE3) bacterial cells. Test compound was added at varying concentrations to this reaction mixture and the resulting reactions were monitored. After the 25 minute incubation with SIRT1, 10 μL of 10% formic acid was added to stop the reaction. The resulting reactions were sealed and frozen for later mass spec analysis. Determination of the amount of deacetylated substrate peptide formed (or, alternatively, the amount of O-acetyl-ADP-ribose (OAADPR) generated) by the sirtuin-mediated NAD-dependent deacetylation reaction allowed for the precise measurement of relative SIRT1 activity in the presence of varying concentrations of the test compound versus control reactions lacking the test compound.
A control for inhibition of sirtuin activity was conducted by adding 1 μL of 500 mM nicotinamide as a negative control at the start of the reaction (e.g., permits determination of maximum sirtuin inhibition). A control for activation of sirtuin activity was conducted using 10 nM of sirtuin protein, with 1 μL of DMSO in place of compound, to determine the amount of deacetylation of the substrate at a given time point within the linear range of the assay. This time point was the same as that used for test compounds and, within the linear range, the endpoint represents a change in velocity.
For the above assay, SIRT1 protein was expressed and purified as follows. The SirT1 gene was cloned into a T7-promoter containing vector and transformed into BL21(DE3). The protein was expressed by induction with 1 mM IPTG as an N-terminal His-tag fusion protein at 18° C. overnight and harvested at 30,000×g. Cells were lysed with lysozyme in lysis buffer (50 mM Tris-HCl, 2 mM Tris[2-carboxyethyl]phosphine (TCEP), 10 μM ZnCl2, 200 mM NaCl) and further treated with sonication for […] for complete lysis. The protein was purified over a Ni-NTA column (Amersham) and fractions containing pure protein were pooled, concentrated and run over a sizing column (Sephadex S200 26/60 global). The peak containing soluble protein was collected and run on an Ion-exchange column (MonoQ). Gradient elution (200 mM-500 mM NaCl) yielded pure protein. This protein was concentrated and dialyzed against dialysis buffer (20 mM Tris-HCl, 2 mM TCEP) overnight. The protein was aliquoted and frozen at −80° C. until further use.

[1] = TAMRA assay, concentration giving 150% activation of SIRT1
[2] = TAMRA assay, percent maximum fold activation
[3] = TAMRA peptide substrate, concentration giving 150% activation of SIRT1
[4] = TAMRA peptide substrate, percent maximum fold activation
[5] = concentration of test compound giving 150% activation of SIRT1, TAMRA peptide substrate
[6] = percent maximum fold activation of SIRT1, TAMRA peptide substrate

SMILES	TAMRA EC1.5 (μM) [1]	Emax [2]	further results
O=C(Nc1cnc2ccc(-c3ccccc3OC(F)(F)F)nn12)c1cscn1 [Compound 316]	A (EC1.5<1 μM)	≥ 350%	–
CCOc1ccc(NC(=O)c2c(C)nc3ccc(-c4cccc(F)c4)nn23)nn1 [Compound 762]	B (EC1.5 1-25 μM)	< 350%	–
Cc1cc(-c2ccccc2C(F)(F)F)nn2c(NC(=O)c3ccncn3)cnc12 [Compound 409]	–	–	TAMRA EC1.5 [3]: A (EC1.5<1 μM); Emax [4]: ≥ 350%
O=C(Nc1cc(OCC(O)CO)ccn1)c1cnc2ccc(-c3ccccc3C(F)(F)F)nn12 (centres unmarked) [Compound 75, N-(4-(2,3-dihydroxypropoxy)pyridin-2-yl)-6-(2-(trifluoromethyl)phenyl)imidazo[1,2-b]pyridazine-3-carboxamide]	–	–	TAMRA EC1.5 (μM) [5]: B (EC1.5 1-25 μM); Emax [6]: ≥ 350%
COCCn1cc(NC(=O)c2cnc3ccc(-c4ccccc4C(F)(F)F)nn23)ccc1=O [Compound 156]	–	–	TAMRA EC1.5 (μM) [5]: B (EC1.5 1-25 μM); Emax [6]: < 350%
Cc1nc(NC(=O)c2c(C)nc3c(C)cc(-c4ccccc4OC(F)(F)F)nn23)sc1C [Compound 482]	–	–	TAMRA EC1.5 [3]: A (EC1.5<1 μM); Emax [4]: ≥ 350%
O=C(Nc1ccnc(N2CCCC2)c1)c1cnc2ccc(-c3ccccc3C(F)F)nn12 [Compound 40]	–	–	TAMRA EC1.5 (μM) [5]: A (EC1.5<1 μM); Emax [6]: ≥ 350%
O=C(Nc1ccc(N2CCOCC2)cn1)c1cnc2ccc(-c3ccccc3C(F)(F)F)nn12 [Compound 199]	A (EC1.5<1 μM)	≥ 350%	–
Cc1cc(C)nc(NC(=O)c2cnc3ccc(N4CC[C@H](N(C)C)C4)nn23)c1 [Compound 512]	–	–	TAMRA EC1.5 [3]: B (EC1.5 1-25 μM); Emax [4]: < 350%
Cc1nc(C(=O)Nc2c(C)nc3ccc(-c4ccccc4C(F)(F)F)nn23)cs1 [Compound 405]	–	–	TAMRA EC1.5 [3]: B (EC1.5 1-25 μM); Emax [4]: ≥ 350%
Cc1cnc(C(=O)Nc2cnn3ccc(-c4ccccc4C(F)(F)F)nc23)s1 [Compound 525]	–	–	TAMRA EC1.5 [3]: A (EC1.5<1 μM); Emax [4]: ≥ 350%
O=C(Nc1cnc2ccc(-c3ccccc3F)nn12)c1ncccn1 [Compound 282]	B (EC1.5 1-25 μM)	< 350%	–
O=C(Nc1cccc(OCC(F)(F)F)n1)c1cnc2ccc(-c3ccccc3F)nn12 [Compound 258]	C (EC1.5>25 μM)	< 350%	–
Cc1nc2ccc(-c3ccccc3OC(F)(F)F)nn2c1C(=O)Nc1cccnn1 [Compound 470]	–	–	TAMRA EC1.5 [3]: A (EC1.5<1 μM); Emax [4]: ≥ 350%
O=C(Nc1cnc2ccc(-c3ccccc3C(F)(F)F)nn12)c1ccnc(N2CCCC2)c1 [Compound 124]	–	–	TAMRA EC1.5 (μM) [5]: A (EC1.5<1 μM); Emax [6]: ≥ 350%
Cc1nn2ccc(-c3ccccc3C(F)(F)F)nc2c1NC(=O)c1ccccn1 [Compound 567, N-(2-methyl-5-(2-(trifluoromethyl)phenyl)pyrazolo[1,5-a]pyrimidin-3-yl)picolinamide]	–	–	TAMRA EC1.5 [3]: B (EC1.5 1-25 μM); Emax [4]: < 350%
Cc1nc2ccc(-c3ccccc3C(F)F)nn2c1C(=O)Nc1ccnc(N2CCOCC2)c1 [Compound 72]	–	–	TAMRA EC1.5 (μM) [5]: A (EC1.5<1 μM); Emax [6]: ≥ 350%
O=C(Nc1cnn2ccc(-c3ccccc3OC(F)(F)F)nc12)c1ccncn1 [Compound 585]	–	–	TAMRA EC1.5 [3]: B (EC1.5 1-25 μM); Emax [4]: ≥ 350%
Cc1cc(-c2ccccc2C(F)(F)F)nn2c(C(=O)Nc3cccc(N4CC5(COC5)C4)n3)cnc12 [Compound 546]	–	–	TAMRA EC1.5 [3]: A (EC1.5<1 μM); Emax [4]: ≥ 350%
O=C(Nc1cccc(N2CCOCC2)n1)c1cnn2ccc(-c3ccccc3OC(F)(F)F)nc12 [Compound 534]	–	–	TAMRA EC1.5 [3]: A (EC1.5<1 μM); Emax [4]: ≥ 350%
O=C(Nc1cnc2ccc(-c3ccccc3C(F)(F)F)nn12)c1cccc(CN2CCOCC2)n1 [Compound 81]	–	–	TAMRA EC1.5 (μM) [5]: A (EC1.5<1 μM); Emax [6]: ≥ 350%
O=C(Nc1cncc(N2CCOCC2)c1)c1cnc2ccc(-c3ccccc3C(F)(F)F)nn12 [Compound 217]	A (EC1.5<1 μM)	≥ 350%	–
N#Cc1ccccc1-c1ccc2ncc(NC(=O)c3cccc(N4CCOCC4)n3)n2n1 [Compound 337]	A (EC1.5<1 μM)	≥ 350%	–
N#Cc1ccccc1-c1ccc2ncc(C(=O)Nc3ccccn3)n2n1 [Compound 200]	B (EC1.5 1-25 μM)	< 350%	–
Cc1nc2ccc(-c3ccccc3Cl)nn2c1NC(=O)c1nccs1 [Compound 353]	B (EC1.5 1-25 μM)	< 350%	–
O=C(Nc1ccccn1)c1ncn2ccc(-c3ccccc3C(F)(F)F)nc12 [Compound 450]	–	–	TAMRA EC1.5 [3]: B (EC1.5 1-25 μM); Emax [4]: ≥ 350%
O=C(Nc1ccccn1)c1cnc2ccc(-c3cccc(OCC(O)CO)c3)nn12 (centres unmarked) [Compound 373]	B (EC1.5 1-25 μM)	< 350%	–
CCOc1ccc(NC(=O)c2c(C)nc3ccc(-c4ccccc4C)nn23)nn1 [Compound 721]	B (EC1.5 1-25 μM)	< 350%	–

Further lines, with some results ahead:

TAMRA EC1.5 (μM) [1]	Emax [2]	SMILES	further results
A (EC1.5<1 μM)	≥ 350%	Cc1cc(NC(=O)c2cnn3ccc(-c4ccccc4OC(F)(F)F)nc23)cc(C)n1 [Compound 611]	–
A (EC1.5<1 μM)	≥ 350%	Cc1cc(-c2ccccc2C(F)(F)F)nn2c(C(=O)Nc3ccnc(O[C@H]4CCOC4)n3)cnc12 [Compound 601]	–
C (EC1.5>25 μM)	< 350%	Cc1nc2ccc(-c3ccccc3C(F)(F)F)nn2c1C(=O)Nc1ccnn1C [Compound 675]	–
B (EC1.5 1-25 μM)	≥ 350%	Cc1ccc(NC(=O)c2cnn3ccc(-c4ccccc4C(F)(F)F)nc23)c(C)n1 [Compound 641]	–
A (EC1.5<1 μM)	≥ 350%	CCOc1ccc(NC(=O)c2c(C)nn3ccc(-c4ccccc4C(F)(F)F)nc23)nn1 [Compound 697]	–
A (EC1.5<1 μM)	< 350%	Cc1ncccc1NC(=O)c1c(C)nn2ccc(-c3ccccc3C(F)(F)F)nc12 [Compound 699]	–
A (EC1.5<1 μM)	≥ 350%	Cc1cc2ncc(C(=O)Nc3cccc(N4CCOCC4)n3)n2nc1-c1ccccc1C(F)(F)F [Compound 209]	–
A (EC1.5<1 μM)	≥ 350%	O=C(Nc1cc(O)ncn1)c1cnn2ccc(-c3ccccc3C(F)(F)F)nc12 [Compound 813]	–
A (EC1.5<1 μM)	≥ 350%	Cc1cccc(C(=O)Nc2cnc3ccc(-c4ccccc4C(F)(F)F)nn23)n1 [Compound 234]	–
